Patent publication US9290740B2, “Use of basic fibroblast growth factor in the de-differentiation of animal connective tissue cells” (Worcester Polytechnic Institute, priority 2008, dated 2016)
“Also recorded” adds a separate entry of the source.

Test system: Msx-1, Msx-2, Sox-2, Oct-4 and Nanog in adult human fibroblasts (CRL-2352)
Assay: Immunocytochemistry / western blot for stem cell transcription factors in FGF2-cultured fibroblasts
Type: cell-based
Protocol: Adult human fibroblasts (CRL-2352, ATCC) were cultured in conditions of 37° C., 5% CO2, 5% O2 90% N2 were seeded into 24 well plates (BD Falcon) either without substrate or with 15 mm Thermanox® coverslips (Nalge Nunc) at 5,000 cells per well in medium consisting of DMEM with 4 mM fresh L-glutamine: Ham's F12 medium (50:50) supplemented with 1×TCH serum replacement (Protide Pharmaceuticals), 1×ITS-X (Invritrogen), 2% FetalClone III (Hyclone), and 4 ng/ml FGF2 (Chemicon). After 5 days, the cells were washed with DPBS w/o Ca/Mg (Mediatech) and fixed in methanol (−20° C.) for 10 min, washed with DPBS and stored in DPBS at 4° C. until use. For detection of nuclear antigens (Msx-1, Msx-2, Sox-2, Oct-4 and Nanog), enhanced nuclear membrane permeabilization was performed by incubation with 1.5 N HCl for 20 min, followed by 3 washes (5 min) in PBS. For immuno-cytochemistry, cells were washed with PBS/Tween (PBS, MediaTech with 0.05% Tween-20, Biorad) and blocked for 30 min at RT with PBS containing 0.05% Tween, 5% FBS, and 1% BSA). Primary antibodies (1:200 dilution) were added in blocking solution for 30 min at RT. Cells were washed 4× in PBS/Tween and Alexafluor-568 labeled appropriate secondary antibody diluted 1:1000 in blocking solution added for 30 min. Cells were washed 4× in PBS/Tween and stored in PBS at 4 C until image analysis. Antibodies used were: Msx-1 (SantaCruz, sc-17726), Msx-2 (Santa Cruz, sc-17729), Sox-2 (Abeam, ab15830), Oct4 (Santa Cruz, sc-8630), Nanog (abeam ab21624) FGF receptor-1 (Abgent, AP7636a), FGF Receptor-2 (Abgent, AP7636a), FGF2 (N-terminus, Santa Cruz sc-1390), FGF2 (internal, Santa Cruz sc-79), fibroblast specific protein (FSP, Sigma). Coverslips were removed and mounted onto glass slides in 80% glycerol in PBS containing 0.1% Na-Azide and sealed with nail polish. Cells were visualized using at Olympus IX81 inverted microscope with epi-fluorescence using appropriate filters (Semrock, Inc.) and phase contrast. Images were collected using a 12 bit Hamamatzu CCD camera (Model C4742-80-12AG) and images processes using Slidebook®.
Fibroblasts were seeded into 24 well plates (BD Falcon) with 15 mm Thermanox® coverslips (Nunc) or #2 12 mm round glass coverslips (VWR) at 5,000 cells per well in medium consisting of DMEM with 4 mM fresh L-glutamine: Ham's F12 medium (60:40) supplemented with 1×TCH serum replacement (Protide Pharmaceuticals), 1×ITS-X (Invitrogen), 2% FetalClone III (Hyclone) and cultured at 37° C., 5% CO2, 5% O2 and 90% N2. For FGF2 treatments, FGF2 (4 ng/ml) was added to the medium at the time of seeding. After 7 days, the cells were washed with DPBS w/o Ca/Mg (Mediatech) and fixed in methanol (−20° C.) for 10 min, washed with DPBS and stored in DPBS at 4 C until use. Cells were washed with PBS/Tween (PBS, MediaTech with 0.05% Tween-20, Biorad) and blocked for 30 min at RT with PBS containing 0.05% Tween, 5% FBS, and 1% BSA). Primary antibodies (2.5 μg/ml) were added in blocking solution for 30 min at RT. Cells were washed 4× in PBS/Tween and Alexafluor-568 labeled appropriate secondary antibody (4 μg/ml) in blocking solution added for 30 min. Cells were washed 4× in PBS/Tween and stored in PBS at 4° C. until image analysis. Antibodies used were: Oct4 (Abcam ab19857), Sox2 (Abcam, ab15830), Nanog (Abcam, ab21624, FGFR-1 (Abgent, AP7636a), FGFR-2 (Abgent, AP7636a), FGFR3 (Abcam ab10651), FGFR4 (Abcam ab41948), FGF2 (Santa Cruz, sc-1390 and sc-79). Coverslips were removed and mounted onto glass slides in 80% glycerol in PBS containing 0.1% Na-Azide and sealed with nail polish. Cells were visualized using an Olympus IX81 inverted microscope with epi-fluorescence using appropriate filters (Semrock, Inc.) and phase contrast. Images were collected using a 12 bit Hamamatzu CCD camera and processed using Slidebook®. […]

“FGF2: human recombinant FGF2 (Invitrogen, Chemicon or Protide), basic fibroblast growth factor” was tested. Which “effect on Oct4, Sox2 and Nanog protein” value (FGF2 4 ng/ml, 5% O2, 7 days) did it give?
The value was “translation and nuclear translocation”.

And the “cells with stem-like nuclear localization of the transcription factors” value (FGF2, lowered oxygen, 7 days of culture)?
The value was “up to 30%”.

And the “localization of Msx2, Sox2 and Oct4, Thermanox coverslips” value (Thermanox coverslips, 2% serum, low O2, FGF2)?
Its value is “detected in the nucleus; also recorded: nuclear localization of all three transcription factors”.

And the “FGF2 concentration at which Sox-2 is induced” value (culture for 2 days, preliminary dose response)?
The value was 0.5 ng/mL.

And the “ICC for transcription factors Oct4, Sox2 and Msx1” value (early transition of cultures grown in the presence of FGF2)?
Its value is “positive”.

What about the “localization of induced Sox2 expression” value (preliminary dose response, before change to Thermanox coverslips) of the same substance?
The value was “restricted to the cytoplasm”.

What about the “expression of Msx-2, Sox-2 and Oct-4, tissue culture plastic” value (tissue culture plastic, low O2, low serum, FGF2 4 ng/ml, 5 days) of the same substance?
The value was “some cytoplasmic expression”.
